Experimental data from ChEMBL document CHEMBL1201862, “PubChem BioAssay data set” (2004).
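Interpolation was linear, between the two tested concentrations surrounding the appropriate level; five concentrations were tested over 48 hours in 96-well plates. GI50 = concentration required for 50% inhibition of growth.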 Calls of active or inactive are those of the source. Cut-off read from the data, not from the text of the source: active = GI50 up to about 1.1 µM and inactive = higher.

Columns and labels:
Experiment in all cases: DTP human tumour cell line panel, 48 h
[1] = system: 786-0
[2] = system: Malme-3M
[3] = system: DU-145
[4] = system: LOX IMVI
[5] = system: EKVX
[6] = system: SK-OV-3
[7] = system: MCF7
[8] = system: K562
[9] = system: SF-295
[10] = system: SNB-75
[11] = system: MDA-MB-435
[12] = system: SR
[13] = system: OVCAR-8
[14] = system: SN12C
[15] = system: COLO 205
[16] = system: SF-539
[17] = system: UO-31
[18] = system: TK-10
[19] = system: NCI-H522
[20] = system: Hs-578T

Measured: GI50

Cc1ccc(C)c(COCCOCn2c(=O)[nH]c(=O)c3cc(Br)ccc32)c1
inactive: [1] 29.4 µM | [2] 71.8 µM | [3] 90.8 µM | [4] > 100 µM | [5] > 100 µM | [6] > 100 µM | [7] > 100 µM | [8] > 100 µM | [9] > 100 µM | [10] 46.6 µM | [11] > 100 µM | [12] > 100 µM | [13] 94.2 µM | [14] > 100 µM | [15] > 100 µM | [16] 99.3 µM | [17] > 100 µM | [18] 55.3 µM | [19] 62.4 µM

CSc1nc2c(c(=O)n1C)N=C(c1ccccc1)[C@H](C(CC(=O)c1ccccc1)c1ccccc1)C(c1ccccc1)N2 (some centres not stated)
inactive: [1] > 100 µM | [2] > 100 µM | [3] > 100 µM | [4] > 100 µM | [5] 15.8 µM | [7] 37.1 µM | [8] 54.5 µM | [9] > 100 µM | [10] 3.12 µM | [11] > 100 µM | [12] > 100 µM | [13] > 100 µM | [14] > 100 µM | [15] > 100 µM | [16] > 100 µM | [17] 15 µM | [19] 20.5 µM

Cc1[nH]c2ncn(N)c(=N)c2c1Cc1ccccc1
inactive: [1] > 100 µM | [2] 6.76 µM | [4] 67.1 µM | [5] > 100 µM | [6] > 100 µM | [7] 33 µM | [8] > 100 µM | [9] > 100 µM | [10] 42.7 µM | [11] 34.6 µM | [12] > 100 µM | [13] > 100 µM | [14] > 100 µM | [15] > 100 µM | [16] 58.2 µM | [17] 26.1 µM | [18] > 100 µM | [19] 49.2 µM

COc1cc(OC)cc(Oc2nc3c(N)cc(C(F)(F)F)cc3nc2-c2ccccc2)c1
inactive: [1] 55.1 µM | [4] 20.4 µM | [5] 25.5 µM | [6] 44.4 µM | [7] 8.93 µM | [8] 2.71 µM | [9] 49.5 µM | [10] 47.9 µM | [11] 11.4 µM | [12] 11.1 µM | [13] 46.3 µM | [15] 20.1 µM | [16] 99.3 µM | [20] 80.4 µM | [17] > 100 µM | [18] 60.5 µM

CN(C(=O)C1CCCCCC1=O)c1ccccc1Cl (configuration not stated)
inactive: [1] > 100 µM | [2] > 100 µM | [3] > 100 µM | [4] > 100 µM | [5] > 100 µM | [6] > 100 µM | [9] > 100 µM | [10] > 100 µM | [11] > 100 µM | [13] > 100 µM | [14] > 100 µM | [15] > 100 µM | [16] > 100 µM | [17] > 100 µM | [18] > 100 µM | [19] > 100 µM

CC(C)[Si](Oc1ccc(CC2N(C(=O)c3ccc([N+](=O)[O-])cc3)C(CCc3ccccc3)CC2(C)C=O)cc1)(C(C)C)C(C)C (configuration not stated)
inactive: [1] 17.2 µM | [2] > 100 µM | [3] 61.1 µM | [4] > 100 µM | [5] 82.6 µM | [6] 27.7 µM | [9] 7.05 µM | [12] 2.58 µM | [13] 13.6 µM | [15] > 100 µM | [16] 6.22 µM | [20] 32 µM | [17] > 100 µM | [18] > 100 µM | [19] > 100 µM

CC1OC(=O)c2ccccc2NC1=O (configuration not stated)
inactive: [1] > 100 µM | [2] > 100 µM | [3] > 100 µM | [4] > 100 µM | [5] > 100 µM | [6] > 100 µM | [8] > 100 µM | [9] > 100 µM | [10] > 100 µM | [11] > 100 µM | [12] > 100 µM | [13] > 100 µM | [14] > 100 µM | [15] > 100 µM | [16] > 100 µM | [20] > 100 µM | [17] > 100 µM | [18] > 100 µM | [19] > 100 µM

CC(=O)OC12C3C4C1C1C2C3C41OC(C)=O (configuration not stated)
inactive: [1] > 100 µM | [3] > 100 µM | [4] > 100 µM | [5] > 100 µM | [6] > 100 µM | [7] > 100 µM | [8] > 100 µM | [9] > 100 µM | [10] > 100 µM | [11] > 100 µM | [12] > 100 µM | [13] > 100 µM | [14] > 100 µM | [15] > 100 µM | [16] > 100 µM | [17] > 100 µM | [18] > 100 µM | [19] > 100 µM

COC(=O)CCC(NC(=S)N/N=C/c1ccco1)C(=O)OC (configuration not stated)
inactive: [1] > 100 µM | [2] > 100 µM | [4] > 100 µM | [5] > 100 µM | [6] > 100 µM | [8] > 100 µM | [9] > 100 µM | [10] > 100 µM | [12] > 100 µM | [13] > 100 µM | [14] > 100 µM | [15] > 100 µM | [16] > 100 µM | [17] > 100 µM | [18] > 100 µM | [19] > 100 µM

Cc1ccccc1/N=C/c1ccc(N(CCC#N)S(=O)(=O)c2ccccc2)cc1
inactive: [1] > 100 µM | [2] > 100 µM | [4] > 100 µM | [5] > 100 µM | [6] > 100 µM | [8] > 100 µM | [9] > 100 µM | [10] > 100 µM | [12] > 100 µM | [13] > 100 µM | [14] > 100 µM | [15] > 100 µM | [16] > 100 µM | [17] > 100 µM | [18] > 100 µM | [19] 70.1 µM

COc1c(-c2nc3ccc(N4CCN(C)CC4)nc3[nH]2)cc(OC)c2c1nc(CO)n2C
inactive: [1] > 100 µM | [2] > 100 µM | [3] > 100 µM | [4] > 100 µM | [5] > 100 µM | [6] > 100 µM | [8] > 100 µM | [9] > 100 µM | [10] 31.1 µM | [11] > 100 µM | [13] > 100 µM | [14] > 100 µM | [15] 75.7 µM | [16] 53.3 µM | [20] > 100 µM | [17] > 100 µM | [19] > 100 µM
